For experiment [1], the system named is HMGB1 release by PANC-1 cells. As to the kind of experiment: HMGB1 release ELISA. Format: cell-based, human. The conditions noted are these: 300 to 2 μM, 24 h, ELISA of supernatants, n = 3. Here is the method: PANC-1 cells were seeded 5 × 10^4 cells/well in a standard 96-well plate and incubated overnight at 37°C in a 5% CO2 atmosphere. Then they were treated with BOP7, BOP9, daunorubicin hydrochloride (Sigma Aldrich) and irinotecan hydrochloride (Sigma Aldrich) at different concentrations (from 300 to 2 μM in 200 μL) and left for 24 h at 37°C. The following day, release of HMGB1 in the culture medium was assessed with an HMGB1 ELISA kit (IBL International, Hamburg, Germany) in the PANC-1 supernatants, according to the manufacturer’s instructions. Optical density was measured at 450 nm with a microplate spectrophotometer (Multiskan, Thermo Scientific). Data was analysed using GraphPad Prism version 9.5.0 software.

The test system of experiment [2] is IFN-β secretion by PANC-1 cells. As to the kind of experiment: IFN-β release ELISA. As to conditions: 300 to 2 μM, 24 h, n = 3. Format: cell-based, human. Here is the method:
PANC-1 cells were seeded 5 × 10^4 cells/well in a 96-well plate and incubated overnight at 37°C in a 5% CO2 atmosphere. Cells were then treated with BOP7, BOP9, daunorubicin hydrochloride (Sigma Aldrich) and irinotecan hydrochloride (Sigma Aldrich) at different concentrations (from 300 to 2 μM) and left for 24 h at 37°C. At the same time, a DuoSet ELISA plate (R&D Systems Inc., Minneapolis, MN, United States) for the detection of IFN-β was prepared following the manufacturer’s instructions. The plate was sensitized with 100 μL/well of capture antibody for 24 h. PANC-1 supernatants were collected and centrifuged for 5 min at 1,200 rpm, added to the DuoSet plate at 100 μL/well and incubated for 2 h at room temperature. The detection antibody conjugated with streptavidin-peroxidase was then added. After adding the substrate solution, the plate was read at 450 nm using a microplate spectrophotometer (Multiskan, Thermo Scientific). Data was analysed using GraphPad Prism version 9.5.0 software.
On the technique in general: An ELISA detects its analyte on a solid surface through an enzyme-linked reagent.

For experiment [3], the system named is ATP release by PANC-1 cells. As to the kind of experiment: Extracellular ATP bioluminescence assay. Type of experiment: cell-based, human. The conditions noted are these: 50 μM. Here is the method:
PANC-1 cells were seeded (10 × 10^3 cells/well) in an opaque-walled 96-well plate and incubated overnight at 37°C in a 5% CO2 atmosphere. The following day, each well was treated with 150 μL BOP7, BOP9, daunorubicin hydrochloride (Sigma Aldrich) or irinotecan hydrochloride (cod. PHR2717, Sigma Aldrich) at different concentrations (from 50 to 2 μM). At the same time, each well was incubated with 50 μL RealTime-Glo Extracellular ATP Reagent Substrate (Promega). The plate was incubated at 37° and bioluminescence was measured at 560 nm at different time intervals with a VICTOR NIVO 5S luminometer (Perkin Elmer, Waltham, MA, United States). Data was analysed using GraphPad Prism version 9.5.0 software.

For another experiment, the system named is Mia PaCa-2 cells. Type of experiment: cell-based, human. As to conditions: 24 h. Here is the method: (§1) PANC-1, PANC-1-luc2, Mia PaCa-2 or CHO-K1 cells were seeded 5 × 10^4 cells/well in a standard 96-well plate and incubated overnight at 37°C, 5% CO2 atmosphere. Each well was treated with 200 μL BOP7 or BOP9 at different concentrations (from 100 to 0.08 μM) and incubated for 24 h. PANC-1 and Mia PacCa-2 were also tested with linear peptides L7 and L9 at concentrations ranging from 781 to 0.5 μM under the same conditions. Growth inhibition was assessed with a MMT assay (3-(4,5-dimethylthiazol-2-yl)-2,5-diphenyltetrazolium bromide) (Sigma Aldrich). Optical density was measured at 595 and 650 nm with a microplate spectrophotometer (Multiskan, Thermo Scientific). Experiments were repeated twice in quintuplicate. Cell viability was measured by comparing values of treated and untreated cells. IC50 values were calculated by non-linear regression analysis using GraphPad Prism version 9.5.0 software.

The next experiment deals with PANC-1 cells. Format: cell-based, human. As to conditions: 24 h. The method, then:
as §1

A further experiment concerns CHO-K1 cells. Format: cell-based, chinese hamster. The conditions noted are these: 24 h. Here is the method:
as §1, with “Each well was treated with 200 μL BOP7 or BOP9 at different concentrations (from 100 to 0.08 μM) and incubated for 24 h.” left out

Where a name gives a salt, the structure may show the parent alone. Bridges are numbered along the chain shown (N, C = ends). Roman numbers before positions name the chains, in order. Where no end group is shown, it is not given here.

`COc1cccc2c1C(=O)c1c(O)c3c(c(O)c1C2=O)C[C@@](O)(C(C)=O)C[C@@H]3O[C@H]1C[C@H](N)[C@H](O)[C@H](C)O1` [daunorubicin, daunorubicin hydrochloride]: the HMGB1 release entry in experiment [1] is on record as “most effective inducer even at the lowest concentrations”. In experiment [2], the IFN-β release result is listed as “did not result in a statistically significant release”. Besides, in experiment [3], the “time after which ATP release returned to baseline” value came to 6 h and the “time of peak of ATP release” value is listed as 3 h. In experiment [3] (bioluminescence over time), the ATP release result was “most effective agent”.
Turning to `CCc1c2c(nc3ccc(OC(=O)N4CCC(N5CCCCC5)CC4)cc13)-c1cc3c(c(=O)n1C2)COC(=O)[C@]3(O)CC` [irinotecan, irinotecan hydrochloride], in experiment [2], the IFN-β release entry is “did not result in a statistically significant release”.
As to “I: KKKLKFKKLQKK-NH2 / II: KKKLKFKKLQK / III: KKKLKFKKLQ / IV: KKKLKFKKLQ (amide I:11-IV:C, I:12-II:C, II:11-III:C) [BOP9]”, the IC50 (as a rule, the concentration that inhibits the measured activity by half) was found to be 17.8 µM with Mia PaCa-2 cells, 8.3 µM in the experiment with PANC-1 cells and 16000 µM in the experiment on CHO-K1 cells.
The matching figures for “I: LLKKKFKKLQKK-NH2 / II: LLKKKFKKLQK / III: LLKKKFKKLQ / IV: LLKKKFKKLQ (amide I:11-IV:C, I:12-II:C, II:11-III:C) [BOP7]”: 27.3 µM, 1.67 µM and 5000 µM.
